One assay deals with NFκB. Description: NFκB agonist assay in A549 SPAP cells.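 As to average maximum asymptote in the NFkB assay: maximum inhibition of the TNFα-induced NFκB-driven signal.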 The class given is cell-based. The conditions noted are these: Homo sapiens; for Emax: A549, A549 SPAP cells, >85% = full agonist, ≧20% = partial or full agonist, read-out: average maximum asymptote in the NFkB assay; for IC50: A549 SPAP cells, TNFα 3.2 ng/ml, read-out: pIC50 for the NFkB assay (converted). The method, boiled down: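 A549 cells stably carrying an ELAM/NFκB-driven SPAP reporter were pre-incubated 1 h at 37° C with compound, then stimulated with TNFα (3.2 ng/ml final) for 15 h. SPAP activity read colorimetrically with pNPP at 405 nm after ~1 h; pIC50 estimated from dose-response curves.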

A further assay deals with T1, progesterone receptor (Homo sapiens, UniProt P06401).
T1 construct: expressed in transfected cells; host or cells: CV-1 cells transduced with PRb-BacMam and MMTV-BacMam
T1 sequence (P06401 1-933): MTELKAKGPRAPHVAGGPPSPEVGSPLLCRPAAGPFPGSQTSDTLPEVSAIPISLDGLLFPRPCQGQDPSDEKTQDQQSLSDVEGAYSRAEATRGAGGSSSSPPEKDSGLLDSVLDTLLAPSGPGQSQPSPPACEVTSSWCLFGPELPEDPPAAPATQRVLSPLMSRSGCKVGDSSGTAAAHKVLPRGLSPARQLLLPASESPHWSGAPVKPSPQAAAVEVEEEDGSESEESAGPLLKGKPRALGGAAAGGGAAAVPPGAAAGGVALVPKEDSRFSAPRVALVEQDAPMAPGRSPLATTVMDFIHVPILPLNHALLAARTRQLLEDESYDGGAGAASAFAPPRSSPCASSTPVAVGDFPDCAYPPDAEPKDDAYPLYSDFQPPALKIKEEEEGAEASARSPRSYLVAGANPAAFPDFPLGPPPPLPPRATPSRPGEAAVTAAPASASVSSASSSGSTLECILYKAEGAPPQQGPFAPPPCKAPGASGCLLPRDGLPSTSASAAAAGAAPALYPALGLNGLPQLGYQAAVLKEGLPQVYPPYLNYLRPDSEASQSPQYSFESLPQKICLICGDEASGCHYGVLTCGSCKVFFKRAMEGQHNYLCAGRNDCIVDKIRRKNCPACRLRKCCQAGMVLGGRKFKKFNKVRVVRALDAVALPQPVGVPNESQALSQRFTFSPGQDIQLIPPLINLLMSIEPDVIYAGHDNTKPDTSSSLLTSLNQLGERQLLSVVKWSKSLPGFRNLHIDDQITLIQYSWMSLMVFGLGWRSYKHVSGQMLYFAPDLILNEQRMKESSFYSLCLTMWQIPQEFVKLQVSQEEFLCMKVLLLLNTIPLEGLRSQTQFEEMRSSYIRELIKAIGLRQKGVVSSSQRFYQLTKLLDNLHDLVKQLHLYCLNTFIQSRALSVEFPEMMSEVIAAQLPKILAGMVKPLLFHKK
As to the kind of experiment: Assay for progesterone receptor activity (CV-1 cells, PRb-BacMam/MMTV-BacMam). The class given is cell-based. The conditions noted are these: CV-1 cells transduced with PRb-BacMam and MMTV-BacMam; read-out: pEC50 progesterone receptor activity (converted). The method, boiled down: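 CV-1 cells co-transduced with PRb-BacMam and MMTV-BacMam (10% each), seeded onto compounds in DMEM with 10% serum. After 24 h, luminescence was read with Steadylite. pEC50 values were estimated from dose-response curves.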

The structures appear in SMILES notation.

For the compound `CCN(CC(O)(CNC(=O)c1cnn(-c2c(F)cccc2F)c1N)C(F)(F)F)C(=O)c1c(F)cccc1F` (racemic) [Example 37 (racemic), 5-amino-1-(2,6-difluorophenyl)-N-(2-{[[(2,6-difluorophenyl)carbonyl](ethyl)amino]methyl}-3,3,3-trifluoro-2-hydroxypropyl)-1H-pyrazole-4-carboxamide], in the assay on NFκB, the Emax was over 85% and the IC50 is under 1000 nM. On progesterone receptor, the EC50 was over 1000 nM.

As for `CCN(CC(O)(CNC(=O)c1cnn(-c2cccc(F)c2)c1N)C(F)(F)F)C(=O)c1c(F)cccc1F` (racemic) [Example 38 (racemic), 5-amino-N-(2-{[[(2,6-difluorophenyl)carbonyl](ethyl)amino]methyl}-3,3,3-trifluoro-2-hydroxypropyl)-1-(3-fluorophenyl)-1H-pyrazole-4-carboxamide], in the assay on NFκB, the Emax was over 85% and the IC50 is under 1000 nM. At progesterone receptor, the EC50 was over 1000 nM.

Take `CCN(CC(O)(CNC(=O)c1cnn(-c2ccc(Cl)cc2)c1N)C(F)(F)F)C(=O)c1c(F)cccc1F` (racemic) [Example 39 (racemic), 5-amino-1-(4-chlorophenyl)-N-(2-{[[(2,6-difluorophenyl)carbonyl](ethyl)amino]methyl}-3,3,3-trifluoro-2-hydroxypropyl)-1H-pyrazole-4-carboxamide]: in the assay with NFκB, the Emax is over 85% and the IC50 was under 1000 nM. Besides, at progesterone receptor, the EC50 is over 1000 nM.

For `CCN(CC(O)(CNC(=O)c1cnn(-c2cccc(Cl)c2)c1N)C(F)(F)F)C(=O)c1c(F)cccc1F` (racemic) [Example 41 (racemic), 5-amino-1-(3-chlorophenyl)-N-(2-{[[(2,6-difluorophenyl)carbonyl](ethyl)amino]methyl}-3,3,3-trifluoro-2-hydroxypropyl)-1H-pyrazole-4-carboxamide], in the assay with NFκB, the Emax is over 85% and the IC50 is under 1000 nM. Further, the EC50 on progesterone receptor is over 1000 nM.

In the case of `CCN(CC(O)(CNC(=O)c1cnn(-c2ccccc2F)c1N)C(F)(F)F)C(=O)c1c(F)cccc1F` (racemic) [Example 42 (racemic), 5-amino-N-(2-{[[(2,6-difluorophenyl)carbonyl](ethyl)amino]methyl}-3,3,3-trifluoro-2-hydroxypropyl)-1-(2-fluorophenyl)-1H-pyrazole-4-carboxamide], in the assay with NFκB, the Emax was over 85% and the IC50 is under 1000 nM. Besides, on progesterone receptor, the EC50 was over 1000 nM.

Turning to `Nc1c(C(=O)NCC(O)(CNC(=O)c2c(C(F)F)cccc2C(F)F)C(F)(F)F)cnn1-c1ccc(F)cc1` (racemic) [Example 43 (racemic), 5-Amino-N-{2-[({[2,6-bis(difluoromethyl)phenyl]carbonyl}amino)methyl]-3,3,3-trifluoro-2-hydroxypropyl}-1-(4-fluorophenyl)-1H-pyrazole-4-carboxamide], in the assay on NFκB, the Emax is at least 20% and the IC50 is under 1000 nM. Moreover, on progesterone receptor, the EC50 was over 1000 nM.

With `Nc1c(C(=O)NCC(O)(CNC(=O)c2c(Br)cccc2C(F)(F)F)C(F)(F)F)cnn1-c1ccc(F)cc1` (racemic) [Example 45 (racemic), 5-Amino-N-{2-[({[2-bromo-6-(trifluoromethyl)phenyl]carbonyl}amino)methyl]-3,3,3-trifluoro-2-hydroxypropyl}-1-(4-fluorophenyl)-1H-pyrazole-4-carboxamide], in the assay with NFκB, the Emax is at least 20% and the IC50 is under 1000 nM. In addition, on progesterone receptor, the EC50 was over 1000 nM.

In the case of `Nc1c(C(=O)NCC(O)(CNC(=O)c2c(Cl)cccc2Cl)C(F)(F)F)cnn1-c1ccc(F)cc1` (single isomer, unassigned) [Example 3 Enantiomer 1, 5-Amino-N-[2-({[(2,6-dichlorophenyl)carbonyl]amino}methyl)-3,3,3-trifluoro-2-hydroxypropyl]-1-(4-fluorophenyl)-1H-pyrazole-4-carboxamide], in the assay with NFκB, the Emax is at least 20% and the IC50 was under 1000 nM. For the same compound, at progesterone receptor, the EC50 is over 1000 nM.

As for `CCN(CC(O)(CNC(=O)c1cnn(-c2ccc(F)cc2)c1N)C(F)(F)F)C(=O)c1ccccc1S(C)(=O)=O` (single isomer, unassigned) [Example 10 Enantiomer 1, 5-Amino-N-{2-[(ethyl{[2-(methylsulfonyl)phenyl]carbonyl}amino)methyl]-3,3,3-trifluoro-2-hydroxypropyl}-1-(4-fluorophenyl)-1H-pyrazole-4-carboxamide], in the assay with NFκB, the Emax was over 85% and the IC50 was under 1000 nM. For the same compound, the EC50 on progesterone receptor was over 1000 nM.

For `Nc1c(C(=O)NCC(O)(CNC(=O)c2c(Br)cccc2Br)C(F)(F)F)cnn1-c1ccc(F)cc1` (single isomer, unassigned) [Example 11 Enantiomer 1, 5-Amino-N-[2-({[(2,6-dibromophenyl)carbonyl]amino}methyl)-3,3,3-trifluoro-2-hydroxypropyl]-1-(4-fluorophenyl)-1H-pyrazole-4-carboxamide], in the assay with NFκB, the Emax was at least 20% and the IC50 is under 1000 nM. On progesterone receptor, the EC50 was over 1000 nM.

On to `Nc1c(C(=O)NCC(O)(CNC(=O)c2c(Cl)cccc2Br)C(F)(F)F)cnn1-c1ccc(F)cc1` (single isomer, unassigned) [Example 12 Enantiomer 1, 5-Amino-N-[2-({[(2-bromo-6-chlorophenyl)carbonyl]amino}methyl)-3,3,3-trifluoro-2-hydroxypropyl]-1-(4-fluorophenyl)-1H-pyrazole-4-carboxamide], for which, in the assay on NFκB, the Emax is at least 20% and the IC50 was under 1000 nM. Also, at progesterone receptor, the EC50 was over 1000 nM.

For the compound `Nc1c(C(=O)NCC(O)(CNC(=O)c2c(F)cccc2Br)C(F)(F)F)cnn1-c1ccc(F)cc1` (single isomer, unassigned) [Example 13 Enantiomer 1, 5-Amino-N-[2-({[(2-bromo-6-fluorophenyl)carbonyl]amino}methyl)-3,3,3-trifluoro-2-hydroxypropyl]-1-(4-fluorophenyl)-1H-pyrazole-4-carboxamide], in the assay on NFκB, the Emax was at least 20% and the IC50 was under 1000 nM. The EC50 on progesterone receptor is over 1000 nM.

In the case of `Nc1c(C(=O)NCC(O)(CNC(=O)c2c(Cl)cccc2OC(F)F)C(F)(F)F)cnn1-c1ccc(F)cc1` (single isomer, unassigned) [Example 14 Enantiomer 1, 5-Amino-N-(2-{[({2-chloro-6-[(difluoromethyl)oxy]phenyl}carbonyl)amino]methyl}-3,3,3-trifluoro-2-hydroxypropyl)-1-(4-fluorophenyl)-1H-pyrazole-4-carboxamide], in the assay on NFκB, the Emax is at least 20% and the IC50 is under 1000 nM. For the same compound, the EC50 at progesterone receptor is over 1000 nM.

On to `Nc1c(C(=O)NCC(O)(CNC(=O)c2c(C(F)F)cccc2C(F)F)C(F)(F)F)cnn1-c1ccc(F)cc1` (single isomer, unassigned) [Example 43 Enantiomer 1, 5-Amino-N-{2-[({[2,6-bis(difluoromethyl)phenyl]carbonyl}amino)methyl]-3,3,3-trifluoro-2-hydroxypropyl}-1-(4-fluorophenyl)-1H-pyrazole-4-carboxamide], for which, in the assay with NFκB, the Emax is at least 20% and the IC50 was under 1000 nM. The EC50 on progesterone receptor is over 1000 nM.

In the case of `Nc1c(C(=O)NCC(O)(CNC(=O)c2c(Cl)cccc2C(F)(F)F)C(F)(F)F)cnn1-c1ccc(F)cc1` (single isomer, unassigned) [Example 44 Enantiomer 1, 5-Amino-N-{2-[({[2-chloro-6-(trifluoromethyl)phenyl]carbonyl}amino)methyl]-3,3,3-trifluoro-2-hydroxypropyl}-1-(4-fluorophenyl)-1H-pyrazole-4-carboxamide], in the assay with NFκB, the Emax was at least 20% and the IC50 is under 1000 nM. In addition, the EC50 on progesterone receptor is over 1000 nM.

`Nc1c(C(=O)NCC(O)(CNC(=O)c2c(Br)cccc2C(F)(F)F)C(F)(F)F)cnn1-c1ccc(F)cc1` (single isomer, unassigned) [Example 45 Enantiomer 1, 5-Amino-N-{2-[({[2-bromo-6-(trifluoromethyl)phenyl]carbonyl}amino)methyl]-3,3,3-trifluoro-2-hydroxypropyl}-1-(4-fluorophenyl)-1H-pyrazole-4-carboxamide]: in the assay on NFκB, the Emax was at least 20% and the IC50 is under 1000 nM. For the same compound, on progesterone receptor, the EC50 was over 1000 nM.
